Read-outs that look alike come from different tables or passages of the source. Each block holds one compound with its values, some of them ahead of it.
How the values were obtained:
FP receptor [1] = biological target: T1, FP receptor (Rattus norvegicus, UniProt P43118); experiment: Agonist stimulation of [3H]IPs production in A7r5 cells; type: cell-based
T1 construct: Two cell lines containing the FP receptor have been extensively characterized by this method; host or cells: A7r5 rat thoracic aorta smooth muscle cells
Protocol: (§1) Confluent monolayer cultures of cells (in a standard 24-well tissue culture plate) expressing the FP receptor are exposed to [^3H]-myo-inositol (1.5 μCi in a volume of 0.5 ml DMEM culture medium supplemented with 2 mM L-glutamine and 10 μg/ml gentamicin sulfate) in the absence of serum, which causes net incorporation of the radioisotope into the phosphotidylinositol membrane lipids. After 24-32 hrs, the medium with the radioisotope is removed and the cells are rinsed once with DMEM/F-12 medium containing 10 mM LiCl (assay medium). Then 0.5 ml of assay medium is added to each well of cells, followed by addition of varying concentrations of an FP receptor agonist (or other test compound). Cells are exposed to the test agent for 30-120 min in a humidified incubator (95% air/5% CO2), maintained at 37° C. Then the assay medium is removed and 1 ml of 0.1 M formic acid is added to the cell monolayer to inactivate the phospholipase C release the radiolabelled products into the assay medium. The presence of LiCl during the agonist stimulation period inhibits phosphatases and permits the accumulation of radiolabelled inositol phosphates (IPs) which is measured by ion exchange chromatography.
The agonist-dependent production of IPs, which reflects the degree of receptor activation, is quantitatively measured for each well of cells in the 24-well plate by separating the negatively charged radiolabelled IPs from other minor radiolabelled species and free [^3H]-myo-inositol by anion exchange chromatography. […] These samples, i.e., the radiolabelled IPs formed by the cells in response to stimulation by an FP prostaglandin receptor agonist or other test agent, is then measured by scintillation spectrometry on a beta-counter.
The dependence of the level of the [^3H]IPs production on agonist concentration is analyzed by standard pharmacological methods to determine the potency (EC50 value) and efficacy (maximum response; Emax) of the FP receptor agonist relative to a standard FP receptor agonist such as fluprostenol. […]

FP receptor [2] = biological target: T1, FP receptor; experiment: Antagonism of fluprostenol-stimulated [3H]IPs production in A7r5 cells; type: cell-based
Protocol: as §1
The agonist-dependent production of IPs, which reflects the degree of receptor activation, is quantitatively measured for each well of cells in the 24-well plate by separating the negatively charged radiolabelled IPs from other minor radiolabelled species and free [^3H]-myo-inositol by anion exchange chromatography. This is accomplished by adding 0.9 ml of the cell lysate obtained as described above to a column packed with 1 ml of AG 1-X8 anion exchange resin in the formate form. The elution and separation of the radiolabelled IPs from the column consists of sequential additions to the column of: 1) 10 ml of water; 2) 8 ml of 50 mM ammonium formate; and 3) 4 ml of 1.2 M ammonium formate solution containing 0.1 M formic acid. The first two washes are discarded, and the third is collected in a scintillation vial, to which is added 15 ml of a water-accepting scintillation fluid. These samples, i.e., the radiolabelled IPs formed by the cells in response to stimulation by an FP prostaglandin receptor agonist or other test agent, is then measured by scintillation spectrometry on a beta-counter.
The dependence of the level of the [^3H]IPs production on agonist concentration is analyzed by standard pharmacological methods to determine the potency (EC50 value) and efficacy (maximum response; Emax) of the FP receptor agonist relative to a standard FP receptor agonist such as fluprostenol. […] The agonist stimulation is then continued for the standard time (30-120 min), after which the procedure for quenching the reaction, separating the [^3H]IPs, and anion exchange chromatography is identical to the procedure described above. A compound is considered to be an antagonist in this protocol if it inhibits the agonist-stimulated [^3H]IPs production relative to the production measured in the control experiment (performed in parallel), in which the solvent is substituted for the antagonist.
Two different antagonist protocols are employed: 1) the antagonist concentration is varied while holding the agonist concentration fixed at a concentration approximately 10 times the agonist EC50 value and 2) the antagonist concentration is fixed in a given experiment, with the agonist concentration varied, and several such experiments, each with a different, fixed antagonist concentration, are performed. […] Overall, the Ki and Kb values are synonymous and represent the antagonist potency of the antagonist at equilibrium.

human ocular FP receptor = biological target: T2, human ocular FP receptor (Homo sapiens, UniProt P43088); experiment: Antagonism of fluprostenol-induced [3H]IPs production in HEK-293 cells expressing recombinant human ocular FP receptor; type: cell-based
T2 construct: expressed in transfected cells; host or cells: HEK-293 (human embryonic kidney)
Protocol: as §1, with “Then the assay medium is removed and 1 ml of 0.1 M formic acid is added to the cell monolayer to inactivate the phospholipase C release the radiolabelled products into the assay medium.” left out
The agonist-dependent production of IPs, which reflects the degree of receptor activation, is quantitatively measured for each well of cells in the 24-well plate by separating the negatively charged radiolabelled IPs from other minor radiolabelled species and free [^3H]-myo-inositol by anion exchange chromatography. […]

[3] = biological target: FP prostaglandin receptor (Homo sapiens, UniProt P43088); experiment: Selectivity for the FP prostaglandin receptor compared to other classes of prostaglandin receptors
Sequence of FP prostaglandin receptor (P43088 whole entry): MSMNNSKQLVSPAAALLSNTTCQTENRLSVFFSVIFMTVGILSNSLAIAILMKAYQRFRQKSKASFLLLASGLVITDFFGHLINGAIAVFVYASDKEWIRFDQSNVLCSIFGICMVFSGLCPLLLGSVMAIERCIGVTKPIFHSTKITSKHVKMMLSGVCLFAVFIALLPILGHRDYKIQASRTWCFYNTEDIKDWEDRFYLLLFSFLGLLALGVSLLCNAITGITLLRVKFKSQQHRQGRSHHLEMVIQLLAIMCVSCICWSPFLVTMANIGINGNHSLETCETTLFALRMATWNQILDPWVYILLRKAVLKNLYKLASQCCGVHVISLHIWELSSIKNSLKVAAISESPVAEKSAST

T1 sequence (P43118 whole entry): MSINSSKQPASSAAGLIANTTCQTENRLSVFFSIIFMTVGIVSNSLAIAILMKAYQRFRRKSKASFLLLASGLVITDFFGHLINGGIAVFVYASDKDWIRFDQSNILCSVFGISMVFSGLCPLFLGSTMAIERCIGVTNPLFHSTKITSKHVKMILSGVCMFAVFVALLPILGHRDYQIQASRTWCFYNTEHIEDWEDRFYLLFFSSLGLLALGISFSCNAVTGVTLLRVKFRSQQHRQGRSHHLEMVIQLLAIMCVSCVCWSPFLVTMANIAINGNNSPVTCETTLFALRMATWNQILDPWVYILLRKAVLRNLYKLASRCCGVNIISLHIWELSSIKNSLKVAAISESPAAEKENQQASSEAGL
T2 sequence (P43088 whole entry): as the sequence (P43088 whole entry) above

Agonist classification (maximum effect relative to full agonists) (FP receptor [1]): full agonist
Compound: O=C(O)CCC/C=C\C[C@@H]1[C@@H](/C=C/[C@@H](O)COc2cccc(C(F)(F)F)c2)[C@H](O)C[C@@H]1O (racemic) [fluprostenol]

Agonist classification (maximum effect relative to full agonists) (FP receptor [1]): partial agonist
Kb (FP receptor [2]; Schild analysis, read-out: Kb, mol/L (potency as antagonist of the FP receptor)): 250 nM
Ki (FP receptor [2]; fixed fluprostenol concentration about 10 times the agonist EC50, read-out: Ki (method of FIG. 2, antagonist concentration varied)): 426 ± 63 nM
Kb (FP receptor [2]; fluprostenol agonist varied, fixed antagonist concentrations, n=4 experiments, read-out: Kb (Schild analysis)): 285 ± 97 nM
Fold higher potency as FP receptor antagonist than phloretin (FP receptor [2]; from Table 1): > 10 fold
Type of antagonism (FP receptor [2]; shift of fluprostenol dose-response curves, maximal effect unaltered): competitive antagonist
Antagonism of fluprostenol-induced [3H]IPs production (human ocular FP receptor): behaved as an antagonist
Selectivity for FP prostaglandin receptor versus other prostaglandin receptor classes [3]: relatively good selectivity
Compound: O=C(O)CCC/C=C\C[C@@H]1[C@@H](/C=C/[C@H](O)C2Cc3ccccc3C2)[C@@H](F)C[C@@H]1O [Compound III, (5Z,13E)-(9S,11S,15R)-9,15-Dihydroxy-11-fluoro-15-(2-indanyl)-16,17,18,19,20-pentanor-5,13-prostadienoic acid]

Compound: CCCCC[C@H](O)/C=C/[C@@H]1[C@@H](C/C=C\CCCC(=O)N(C)C)[C@@H](O)C[C@H]1O [PGF2α dimethyl amide, reference compound]
Kb, mol/L (potency as antagonist of the FP receptor) (FP receptor [2]; Schild analysis): Inactive

Compound: CCCCC[C@H](O)/C=C/[C@@H]1[C@@H](C/C=C\CCCCN(C)C)[C@@H](O)C[C@H]1O [PGF2α dimethyl amine, reference compound]
Kb, mol/L (potency as antagonist of the FP receptor) (FP receptor [2]; Schild analysis): Inactive

Kb, mol/L (potency as antagonist of the FP receptor) (FP receptor [2]; Schild analysis): Inactive
Compound: CCCCNC(=O)NS(=O)(=O)c1ccc(C)cc1 [Tolbutamide, reference compound]

Agonist classification (maximum effect relative to full agonists) (FP receptor [1]): full agonist
Compound: O=C(O)CCC/C=C\CC1C(O)CC(O)C1/C=C/C(O)COc1cccc(Cl)c1 (stereo not shown) [cloprostenol]
